In patent publication US11013673B2, “Cosmetic compositions containing quinones and their topical use on skin and hair” (Repairogen Corp, priority 2016, dated 2021):

Assays:
CUL4A [1] = target: CUL4A (Homo sapiens, UniProt Q13619); assay: BPB-CUL4A AlphaLISA assay (cell free CUL4 inhibition assay); assay type: biochemical
Protocol: (§1) A BPB-CUL4A AlphaLISA assay was performed using the 54 compounds to determine their CUL4A inhibitory properties in vitro. Next, these 54 leads were tested for their cell-based inhibitory activity against CUL4A. A first cell-based assay involved the inhibition of DNA damage-binding protein 2 (DDB2) degradation in mouse embryonic fibroblast (MEF) cells in vitro. To determine the specificity of the compounds, another cell-based assay was performed to determine the inhibition of IKBa degradation in HeLa cells in vitro. Preferably, the compounds show high DDB2 inhibition and less inhibition of IKBa degradation. IkBa is a target of […], and this assay provides insight into the specificity of the compounds. These tests led to the selection of three active compounds that passed inhibition and selectivity thresholds and, thus, were suitable for use in cosmetic compositions. These were thymoquinone, lapachol and myrtucommulone C.
The Table below reports the ability of compounds to disrupt CUL4A activity in vitro (in a cell free CUL4 inhibition assay) ascertained from the BPB-CUL4A AlphaLISA assay. Activity above 30% was set to distinguish true hits from false positives.

[2] = test system: primary human fibroblasts; assay: cytotoxicity assay (Cell Titer96 Aqueous One) on fibroblasts; conditions: 24 h
Protocol: Normal human dermal adult fibroblasts derived from a donor of were purchased from CELLnTec (Bern, Switzerland) and grown in DMEM supplemented with 10% FBS (Life Technologies, CA, USA). Fibroblasts cultures were maintained at 37° C. with 5% CO2 and ˜95% humidity.
(§2) Cytotoxicity was evaluated using the Cell Titer96 Aqueous One (Promega, Wis., USA) basic test according to manufacturer's instructions. Cells were seeded at a density of 10,000 cells/well in a 96-well plate and cultured overnight. Treatments with seven doses of compounds were carried out for 24 hours, in triplicates. Colorimetric analysis was performed using an absorbance of 490 nm. Inhibition of viability of more than 20% of the control values was considered cytotoxic.
The cytotoxicity assay on primary human fibroblasts from adult donor was performed after 24 h of culture in the presence of different concentrations of each compound, as indicated in FIG. 2B and Table 2.

[3] = test system: human epidermal keratinocytes; assay: microarray analysis of differential gene expression in keratinocytes; conditions: for number of genes downregulated / number of genes upregulated: 24 h
Protocol: (§3) Normal primary adult human keratinocytes derived from a donor were purchased from PromoCell (Heidelberg, Germany) and cultured in keratinocytes growth medium (Epilife+EDGS, Thermo Fisher Scientific, NY, USA). Keratinocytes cultures were maintained at 37° C. with 5% CO2 and ˜95% humidity.
Normal primary human keratinocytes were seeded in 6-well plates and incubated for 24 h. Cells were then washed in PBS (Thermo Fisher Scientific) and reincubated for 24 more hours in the presence of RGN1518 and RGN1538 (each at two different concentrations), vehicle control, or positive control. Following treatment, the cells were washed with PBS, collected and stored frozen at −80° C. before RNA extraction.
RNA was extracted using a Qiagen RNeasy kit (Qiagen, CA, USA) according to manufacturer's protocol.
18 vials containing RNA isolated from human epidermal keratinocytes and 18 vials containing RNA isolated from human fibroblasts were shipped to Thermo Fisher Scientific, Advanced BioMedical Laboratories (Cinnaminson, N.J.) on dry ice for Affymetrix Human Clariom D array processing.
The differential gene expression was obtained using a threshold of 0.05 for statistical significance (p-value) and a log fold change of expression with absolute value of at least 1. Gene expression was further analysed using Differential Expression Analysis and Pathway Analysis iPathwayGuide) by Advaita Bioinformatics Services (Plymouth, Mich.) in the context of pathways obtained from the Kyoto Encyclopedia of Genes and Genomes (KEGG) database (Release 84.0+/10-26, October 17) (Kanehisa et al., 2000; Kanehisa et al., 2002), gene ontologies from the Gene Ontology Consortium database (2017 Nov. 6) (Ashburner et al., 2000; Gene Ontology Consortium, 2001), miRNAs from the miRBase (Release 21) and […] (Targetscan version:Mouse:7.1, Human:7.1) databases (Agarwal et al., 2015; Nam et al., 2014; Griffiths-Jones et al., 2008; Kozomara and Griffiths-Jones, 2014; Friedman et al., 2009; Grimson et al., 2007), and diseases from the KEGG database (Release 84.0+/10-26, October 17) (Kanehisa et al., 2000; Kanehisa et al., 2002). All references are available in the reports for bioinformatics analysis of differential gene expression provided by Advaita Bioinformatics Services at the following link.

human fibroblast cell = assay: Human Fibroblast Cell Assay: CPD ELISA of DNA damage after UVB; assay type: cell-based; conditions: UVB 35 mJ/cm^2, 12 hours
Protocol: Lastly, tests were conducted on human skin cells. The testing was performed using neonatal foreskin […], a type of skin cell that is a common model for skin testing across the cosmetic industry. The skin cells were purchased from Thermo Fisher Scientific Co. (NY) and grown in Dulbecco Modified Eagle Medium (DMEM) supplemented with 10% Fetal Bovine Serum (Thermo Fisher Scientific). Cultures were maintained at 37° C. within an air atmosphere of 5% carbon dioxide and about 95% humidity.
The skin cells were seeded in 12-well plates and incubated for 24 hours. After incubation, the cells were washed in […] (PBS) and irradiated with UVB at a dosage of 35 mJ/cm^2 using a Viber Lourmat BIO-Sun System (Marne-la-Vallee, France). The test compounds and control materials were added to the medium immediately following UVB irradiation; the treated mediums were allowed to continue for 12 hours at 37° C. under the air atmosphere with 5% carbon dioxide at about 95% humidity. In parallel, each test compound was added to non-irradiated cells as baseline controls. Untreated cells were used as negative controls. All treatments were performed in triplicate. Dosage levels for samples were 12.5 microMolar except lapachol dosed at 3 microMolar. Following incubation, the cells were washed with PBS, collected and stored at −80° C.
DNA was extracted from the collected cells using a QIAamp Blood Kit (QIAGEN, Calif., USA) in accordance with the manufacturer's protocol. The amounts of cyclobutane pyrimidine dimers (CPDs) in the various samples were determined by the CPD ELISA protocol. In accordance with this protocol, an OXISELECT® UV-Induced DNA Damage ELISA Kit (Cell Biolabs Inc., CA, USA) was employed for the testing done in accordance with the manufacturer's instructions. Amounts of CPD in UVB-treated samples were determined in percentage relative to the value of untreated fibroblasts. The greater the measured % CPD, the greater the DNA damage. Thus, in the Table below, the smaller the “Avg (% Untreated)” value, the better is the UVB damage induced inhibitory effect.
Mean standard deviation comparisons between data groups employed the GraphPad Prism 6.05 software (GraphPad Software, CA, USA). Statistical analysis was performed using ANOVA with Holm-Sidak's test or unpaired t-test with Welch's correction.

CUL4A [4] = target: T1, CUL4A (Mus musculus, UniProt Q3TCH7); assay: cell-based assay, inhibition of DDB2 degradation in MEF cells after UV; conditions: DDB2 remaining after UV treatment over baseline compared to DMSO control
T1 construct: endogenous in cells; host or cells: mouse embryonic fibroblast (MEF) cells
Protocol: as §1
In this cell-based assay, the % is DDB2 ([…]) remaining after UV treatment over baseline compared to a control group. In the DMSO control group, the DDB2 remaining % was between 20-30%.

human fibroblasts = assay: microarray analysis of differential gene expression in fibroblasts; assay type: cell-based
[5] = test system: primary human keratinocytes; assay: cytotoxicity assay (Cell Titer96 Aqueous One) on keratinocytes; assay type: cell-based; conditions: 24 h
Protocol: as §3, §2
The cytotoxicity assay on primary human keratinocytes from adult donor was performed after 24 h of culture in the presence of different concentrations of each compound, as indicated in FIG. 2A and Table 1.

T1 sequence (Q3TCH7 whole entry): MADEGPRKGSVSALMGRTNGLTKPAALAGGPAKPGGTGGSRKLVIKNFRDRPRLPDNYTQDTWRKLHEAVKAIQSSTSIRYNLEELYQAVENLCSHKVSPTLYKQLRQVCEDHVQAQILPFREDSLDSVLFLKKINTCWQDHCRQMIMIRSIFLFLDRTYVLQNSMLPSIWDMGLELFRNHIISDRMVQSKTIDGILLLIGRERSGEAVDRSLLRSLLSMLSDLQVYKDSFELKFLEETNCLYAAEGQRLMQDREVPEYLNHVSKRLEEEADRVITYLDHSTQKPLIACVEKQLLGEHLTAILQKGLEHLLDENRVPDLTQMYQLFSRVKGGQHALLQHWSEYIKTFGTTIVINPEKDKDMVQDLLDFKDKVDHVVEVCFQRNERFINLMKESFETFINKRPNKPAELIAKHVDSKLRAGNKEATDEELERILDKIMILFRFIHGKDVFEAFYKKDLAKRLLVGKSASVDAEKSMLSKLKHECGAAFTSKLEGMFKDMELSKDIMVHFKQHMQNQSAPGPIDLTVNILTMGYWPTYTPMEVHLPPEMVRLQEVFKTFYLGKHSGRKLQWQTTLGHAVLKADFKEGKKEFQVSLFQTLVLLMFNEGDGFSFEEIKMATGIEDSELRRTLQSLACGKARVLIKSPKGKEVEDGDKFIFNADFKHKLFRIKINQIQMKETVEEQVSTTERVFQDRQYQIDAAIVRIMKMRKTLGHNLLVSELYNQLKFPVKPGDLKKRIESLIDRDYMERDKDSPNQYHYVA
Sequence of CUL4A (Homo sapiens, UniProt Q13619) (Q13619 whole entry, species assumed): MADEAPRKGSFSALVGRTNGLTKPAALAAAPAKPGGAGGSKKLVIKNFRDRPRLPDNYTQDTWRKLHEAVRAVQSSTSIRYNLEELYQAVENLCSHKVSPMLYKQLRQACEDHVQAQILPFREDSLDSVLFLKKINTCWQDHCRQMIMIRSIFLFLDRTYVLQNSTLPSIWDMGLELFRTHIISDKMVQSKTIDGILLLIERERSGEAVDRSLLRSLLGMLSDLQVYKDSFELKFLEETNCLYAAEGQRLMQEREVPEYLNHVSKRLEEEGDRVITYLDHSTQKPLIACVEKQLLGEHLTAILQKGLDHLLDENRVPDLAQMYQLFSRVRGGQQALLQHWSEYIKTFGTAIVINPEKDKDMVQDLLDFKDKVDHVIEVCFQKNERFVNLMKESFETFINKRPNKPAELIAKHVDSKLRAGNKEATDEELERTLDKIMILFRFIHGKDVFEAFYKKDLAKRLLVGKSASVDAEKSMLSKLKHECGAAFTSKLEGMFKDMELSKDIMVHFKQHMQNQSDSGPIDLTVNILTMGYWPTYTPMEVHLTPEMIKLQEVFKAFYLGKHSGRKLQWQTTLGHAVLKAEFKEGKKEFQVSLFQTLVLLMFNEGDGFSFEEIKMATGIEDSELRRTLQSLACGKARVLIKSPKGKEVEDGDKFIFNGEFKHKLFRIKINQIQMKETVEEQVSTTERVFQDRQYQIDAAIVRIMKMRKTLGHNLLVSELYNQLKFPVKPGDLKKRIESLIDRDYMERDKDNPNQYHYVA

CC(C)=CCC1=C(O)C(=O)c2ccccc2C1=O [Lapachol, 2-hydroxy-3-(3-methylbut-2-enyl)naphthalene-1,4-dione]
% Inhibitory Activity (CUL4A [1]): 34.4%
Avg (% of untreated) ([2]; 15.5 μM): 99%
Avg (% of untreated) ([2]; 31.1 μM): 98%
Avg (% of untreated) ([2]; 62.25 μM): 100%
concentrations that showed no cytotoxicity ([2]; unit not given): up to 62.25
gene expression in Metabolism of Xenobiotics by Cytochrome P450 and Steroid Hormone Biosynthesis Pathways [3]: induced differential gene expression
number of genes downregulated ([3]; 31 μM, of 24905 assessed genes): 556 genes
number of genes upregulated ([3]; 31 μM, of 24905 assessed genes): 250 genes
number of genes downregulated ([3]; 62 μM): 461 genes
number of genes upregulated ([3]; 62 μM): 258 genes
expression of phase-I detoxification and steroid hormone biosynthesis genes ([3]; CYP1A1, CYP1B1, CYP2BG, GSTM3, AKR1C1, AKR1C2, AKR1C3, AKR1B15): upregulated
expression of genes important for normal differentiation and function of skin ([3]; FGF2, CSF1, SLCO2A1, SERPINB1): upregulated
expression of genes associated with inflammation ([3]; IL6, IL1R2, IL2RG, IL1RL1): upregulated
expression of Cell Cycle Pathway genes ([3]; MAD2L1, CDC20, CCNE2, CCNA2, CCNB2, CCNB1, BUB1, PLK1, CDC25C, BUB1B, TTK, ORC1, MCM6): downregulated
Avg (% Untreated) (human fibroblast cell; 3 microMolar): 2076%
DDB2 remaining after UV (% of baseline) (CUL4A [4]): 80%
number of genes downregulated (human fibroblasts; 31 μM, 24 h, of 24905 genes): 30 genes
number of genes upregulated (human fibroblasts; 31 μM, 24 h, of 24905 genes): 104 genes
expression of RGCC and PTGS2 (regulation of fibroblast growth factor production) (human fibroblasts; at either concentration): upregulated
number of genes involved in regulation of endothelial cell migration upregulated (human fibroblasts; out of 70 genes): 3 genes
Avg (% of untreated) ([5]; 15.5 μM): 86%
Avg (% of untreated) ([5]; 31.1 μM): 86%
Avg (% of untreated) ([5]; 62.25 μM): 84%
concentrations that showed no cytotoxicity ([5]; cytotoxic = inhibition of viability of more than 20%): up to 62.25 μM

CC(C)C(=O)c1c(O)c(C(C2=C(O)C(C)(C)C(=O)C(C)(C)C2=O)C(C)C)c(O)c2c1OC1=C(C(=O)C(C)(C)C(=O)C1(C)C)C2C(C)C (centres unmarked) [Myrtucommulone C, myrtucommulone C]
% Inhibitory Activity (CUL4A [1]): 48.9%
Avg (% Untreated) (human fibroblast cell; 12.5 microMolar): 1362%
DDB2 remaining after UV (% of baseline) (CUL4A [4]): 115%

NC(=O)c1cccnc1 [Niacinamide, reference compound]
Avg (% of untreated) ([2]; 3.1 mM): 100%
Avg (% of untreated) ([2]; 6.2 mM): 99%
Avg (% of untreated) ([2]; 12.5 mM): 97%
Avg (% of untreated) ([2]; 25 mM): 100%
Avg (% of untreated) ([2]; 50 mM): 91%
Avg (% of untreated) ([2]; 100 mM): 89%
Avg (% of untreated) ([2]; 200 mM): 61%
concentrations that showed no cytotoxicity [2]: up to 100 mM
expression of ASS1 and PTGS2 [3]: affected
expression of DNAJB9 [3]: downregulated
expression of IL1RG and IL1RL1 receptors [3]: no effect
expression of IL6 and IL1RL1 receptor [3]: upregulated
expression of TYMS [3]: downregulated
expression of VEGFA [3]: no effect
gene expression in Metabolism of Xenobiotics by Cytochrome P450 and Steroid Hormone Biosynthesis Pathways [3]: no major effect
expression of cell cycle genes ([3]; CDK1, PLK1, RB1, CDC25C, CDC25B, MAD2L1, CDKN2B, CCNA2, MAD1L1, TTK, ZBTB17, RBL1, CCNB1, CCNB2, BUB1, CDC20, PTTG1, BUB1B): downregulated only some of the genes
expression of Golgi apparatus genes with the exception of MGAT4A ([3]; COG6, ARFGAP3, IFT20): not affected
expression of FGF2 ([3]; compared with RGN1518): upregulated FGF2 to lesser extend
Avg (% Untreated) (human fibroblast cell; 12.5 microMolar): 2216%
Mineral Absorption Pathway (human fibroblasts): affected
vascular wound healing, spreading of epidermal cells and vasculature development (gene profile) (human fibroblasts): no effect
Avg (% of untreated) ([5]; 3.1 mM): 105%
Avg (% of untreated) ([5]; 6.2 mM): 106%
Avg (% of untreated) ([5]; 12.5 mM): 104%
Avg (% of untreated) ([5]; 25 mM): 108%
Avg (% of untreated) ([5]; 50 mM): 95%
Avg (% of untreated) ([5]; 100 mM): 58%
Avg (% of untreated) ([5]; 200 mM): 46%
concentrations that showed no cytotoxicity [5]: up to 50 mM

CC1=CC(=O)C(C(C)C)=CC1=O [Thymoquinone, 2-isopropyl-5-methylbenzo-1,4-quinone]
% Inhibitory Activity (CUL4A [1]): 70.4%
Avg (% Untreated) (human fibroblast cell; 12.5 microMolar): 2554%
DDB2 remaining after UV (% of baseline) (CUL4A [4]): 85%
